In ChEMBL document CHEMBL3994588, “Importance of 5/6-aryl substitution on the pharmacological profile of 4'-((2-propyl-1H-benzo[d]imidazol-1-yl)methyl)-[1,1'-biphenyl]-2-carboxylic acid derived PPARγ agonists” (Eur J Med Chem, 2017):

How the values were obtained:
[1] = molecular target: T1, Peroxisome proliferator-activated receptor gamma (Homo sapiens, UniProt P37231); assay: (§1) Transactivation of Gal4 fused human PPARgamma LBD expressed in African green monkey COS7 cells after 42 hrs by dual luciferase reporter gene assay; type: cell-based
T1 sequence (P37231 whole entry): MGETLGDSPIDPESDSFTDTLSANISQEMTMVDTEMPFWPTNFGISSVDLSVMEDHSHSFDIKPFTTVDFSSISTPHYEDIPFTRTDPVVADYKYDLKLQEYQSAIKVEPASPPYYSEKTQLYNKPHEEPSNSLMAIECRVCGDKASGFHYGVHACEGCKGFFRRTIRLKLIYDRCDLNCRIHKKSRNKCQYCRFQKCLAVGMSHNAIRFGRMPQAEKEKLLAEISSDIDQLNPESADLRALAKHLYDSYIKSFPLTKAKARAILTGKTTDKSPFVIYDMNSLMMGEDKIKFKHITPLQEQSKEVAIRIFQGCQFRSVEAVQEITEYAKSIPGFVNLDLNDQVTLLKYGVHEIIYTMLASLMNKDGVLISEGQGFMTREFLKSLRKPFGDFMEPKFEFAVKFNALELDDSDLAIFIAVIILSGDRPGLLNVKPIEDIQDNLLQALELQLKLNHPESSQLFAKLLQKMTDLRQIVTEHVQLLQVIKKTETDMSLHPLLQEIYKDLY

[2] = molecular target: T2, Peroxisome proliferator-activated receptor gamma (Homo sapiens) (UniProt P37231); assay: as §1; type: cell-based
T2 sequence (whole entry): T1 sequence (P37231 whole entry)

EC50 ([1]; read-out: EC50) | Activity [2] | EC50 [1] | Structure (SMILES)
1390 nM | Dose-dependent effect | – | CCCc1nc2ccc(-c3ccccc3Cl)cc2n1Cc1ccc(-c2ccccc2C(=O)O)cc1
290 nM | Dose-dependent effect | – | CCCc1nc2cc(-c3cccc(OC)c3)ccc2n1Cc1ccc(-c2ccccc2C(=O)O)cc1
2980 nM | Dose-dependent effect | – | CCCc1nc2ccc(-c3ccc(O)cc3)cc2n1Cc1ccc(-c2ccccc2C(=O)O)cc1
6440 nM | Dose-dependent effect | – | CCCc1nc2ccccc2n1Cc1ccc(-c2ccccc2C(=O)O)cc1
– | – | Not Active | CCCc1nc2cc(-c3cccc(Cl)c3)ccc2n1Cc1ccc(-c2ccccc2C(=O)O)cc1
1250 nM | Dose-dependent effect | – | CCCc1nc2cc(-c3cccc(O)c3)ccc2n1Cc1ccc(-c2ccccc2C(=O)O)cc1
1150 nM | Dose-dependent effect | – | CCCc1nc2ccc(-c3ccc(Cl)cc3)cc2n1Cc1ccc(-c2ccccc2C(=O)O)cc1
1010 nM | Dose-dependent effect | – | CCCc1nc2ccc(-c3ccc(OC)cc3)cc2n1Cc1ccc(-c2ccccc2C(=O)O)cc1
190 nM | Dose-dependent effect | – | CCCc1nc2cc(-c3ccc(Cl)cc3)ccc2n1Cc1ccc(-c2ccccc2C(=O)O)cc1
770 nM | Dose-dependent effect | – | CCCc1nc2ccc(-c3cccc(Cl)c3)cc2n1Cc1ccc(-c2ccccc2C(=O)O)cc1
410 nM | Dose-dependent effect | – | CCCc1nc2cc(-c3ccc(OC)cc3)ccc2n1Cc1ccc(-c2ccccc2C(=O)O)cc1
1350 nM | Dose-dependent effect | – | CCCc1nc2ccc(-c3cccc(OC)c3)cc2n1Cc1ccc(-c2ccccc2C(=O)O)cc1
1010 nM | Dose-dependent effect | – | CCCc1nc2cc(-c3ccc(O)cc3)ccc2n1Cc1ccc(-c2ccccc2C(=O)O)cc1
4970 nM | – | – | CCCc1nc2c(C)cc(-c3nc4ccccc4n3C)cc2n1Cc1ccc(-c2ccccc2C(=O)O)cc1
4090 nM | Dose-dependent effect | – | CCCc1nc2ccc(-c3cccc(O)c3)cc2n1Cc1ccc(-c2ccccc2C(=O)O)cc1
930 nM | Dose-dependent effect | – | CCCc1nc2cc(-c3ccccc3Cl)ccc2n1Cc1ccc(-c2ccccc2C(=O)O)cc1
